{
  "source": "patent US5514706A",
  "about": "“Pharmaceutical compounds” (Eli Lilly and Company, priority 1994, dated 1996)",
  "type_in_all_cases": "cell-based",
  "key": {"[1]": {"test_system": "plasminogen activator (PA) activity in bovine retinal capillary endothelial cells", "test": "Activation of retinal capillary endothelial cells by phorbol esters (PA activity)", "settings": "for IC50: Bos taurus, Endothelial cell, dose-response curves of PA activity, read-out: IC50 from dose-response curves for phorbol ester (activation of PA activity)", "text": "(§1) Retinal capillary endothelial cell cultures were initiated from bovine eyes using a modification of the procedure of Buzney et al., Investigative Ophthalmology and Visual Sciences, 24: 470-483. Bovine eyes were transported on ice from a local abattoir. Extraocular muscle was trimmed from the eye, and the eye bisected posterior to the ora serrata. The vitreous and anterior portion of the eye were discarded, and the neuro-retina was gently dissected from the posterior eyecup. The retinas from 20 cattle were pooled and homogenized (5 strokes of a Teflon/glass homogenizer) in Hank's saline. The homogenate was passed through a 350μ filter to remove large debris and a 210μ filter to remove large vessels. The microvessels were trapped on a 85μ filter. The microvessels were resuspended in Hank's saline and digested with 7.5 mg/ml bacterial collagenase (Boeringher Mannhelm, Indianapolis) in Hank's saline for 1 hour at 37° C. The cells were pelleted by centrifugation (100 xg, 10 min), resuspended in 5 ml Endothelial Growth Media (EGM, Clonetics) and seeded in a gelatin-coated T-25 flask. After 24 hours the cells were trypsinized and replated in a gelatin coated T225. At 7 days and again at 14 days the cultures were labeled with acetylated lipoproteins labeled with the fluorescent probe (1,1'-dioctadecyl-3,3,3,3,-tetramethyl-indocarbocyanine perchlorate). The endothelial cells were separated from contaminating cell types using a fluorescent cell sorter as described in Voyta et al., J. Cell Biology. 99: 2034-2040.\n(§2) Retinal capillary endothelial cells were seeded into 96-well plates and grown to confluence (10^5 cells/well) in EGM containing 10% fetal bovine serum (FBS). The media was changed to Dubecco's Modified Eagle's Medium with 10% fetal bovine serum 24 hours prior to the assay. The cells were treated with 50 nM 4-b phorbol 12,13-dibutyrate (4-b PDBu) to activate PKC and produce the activated endothelial phenotype characteristic of the diabetic state. The activated cells were treated with a series of dilutions of the test compounds. The phorbol esters and the test compounds were dissolved in DMSO before adding to the culture media. The cultures were incubated at 37° C. for 48 hours. Following treatment, the cells were lysed with 25 mM NH4 OH in 0.5% triton X-100.\n(§3) The activation of bovine retinal capillary endothelial cells was monitored through alterations in cellular plasminogen activator (PA) activity in the cell lysates. Plasminogen activator activity was determined in a 50 μl aliquot of cell lysate using the synthetic substrate H-D-valyl-L-leucyl-lysine-p-nitroaniline dihydrochloride (Kabi).\nThere was also a two fold increase in cell number. […] Dose-response curves generated for 4-b PDBu and 4-b PMA indicated IC50 of 50 nH and 5 nH respectively. Elevated PA activity was observed only after prolonged (at least 8 hours) stimulation with phorbol esters. The PA activity continued to increase in a time and dose dependent manner for up to 72 hours, but constant stimulation with phorbol ester was required to maintain endothelial cell activation."}, "[2]": {"test_system": "bovine retinal capillary endothelial cells", "test": "Retinal capillary endothelial cell number after phorbol ester treatment", "settings": "confluent cells, 48 hours", "text": "as §1, with “The endothelial cells were separated from contaminating cell types using a fluorescent cell sorter as described in Voyta et al., J. Cell Biology. 99: 2034-2040.” left out"}, "[3]": {"test_system": "cultured smooth cells derived from rabbit aorta", "test": "3H-thymidine incorporation (DNA synthesis) in vascular smooth muscle cells stimulated with platelet-derived growth factor", "settings": "Oryctolagus cuniculus; 20 ng/ml platelet-derived growth factor, 24 hours", "method": "Cells are obtained by explant method as described in Ross, J. Of Cell Bio. 50: 172 (1971). Cells are plated in 96 well microtiter plates for five days. The cultures become confluent and growth arrested. The cells are then transferred to Dulbecco's Modified Eagle's Medium (DMEM) containing 0.5-2% platelet poor plasma, 2 mM L-glutamine, 100 U/ml penicillin, 100 μg ml streptomycin, 1 μ/ml ^3 H-thymidine, 20 ng/ml platelet-derived growth factor and varying concentrations of the compounds. Stock solution of compounds is prepared in dimethyl sulphoxide and then diluted to appropriate concentration (0.01-10 μg/ml) in the above assay medium. Cells are then incubated at 37° C. for 24 hours under 5% CO2 /95% air. At the end of 24 hours, the cells are fixed in methanol. ^3 H thymidine incorporation in DNA was then determined by scintillation counting as described in Bonin et al., Exp. Cell Res. 181:475-482 (1989).\nTable 1 discloses the IC50 value of representative compounds tested in the ^3 H-thymidine incorporation model. Thus the invention specifically provides a method of treating restenosis, which comprises administering to a patient in need of treatment an effective amount of a compound of the formula (I)."}, "[4]": {"test_system": "plasminogen activator (PA) activity in bovine retinal capillary endothelial cells", "test": "Inhibition of phorbol ester-induced activation of retinal capillary endothelial cells (plasminogen activator (PA) activity in cell lysates)", "settings": "Bos taurus, activated with 50 nM 4-b PDBu, 48 hours, cell lysate, read-out: PA ED50", "text": "as §1, §2, §3\nCell toxicity was determined in a parallel series of cultures using a neutral red assay. Borenfreund, E. and Puerner, J, J. Tiss. Cult. Meth. 9:7 (1984). […] Table 1 discloses the PA ED50 value in this model for representative compounds. The in vitro endothelial cell model was correlated with in situ and in vivo activities by the following models."}},
  "data": [
    {"smiles": "CCCC(=O)O[C@@H]1[C@@H](C)[C@@]2(O)[C@@H](C=C(CO)C[C@@]3(O)C(=O)C(C)=C[C@@H]23)[C@@H]2C(C)(C)[C@]12OC(=O)CCC", "note": "[4-a PDBu]", "values": [
      {"measurement": "increase in activation occurred only after treatment with phorbol esters known to activate PKC (yes/no)", "setting": "[1]", "value": "not"}
    ]},
    {"smiles": "CCCC(=O)O[C@@H]1[C@@H](C)[C@@]2(O)[C@@H](C=C(CO)C[C@]3(O)C(=O)C(C)=C[C@@H]23)[C@@H]2C(C)(C)[C@]12OC(=O)CCC", "note": "[4-b PDBu, 4-b phorbol 12,13-dibutyrate]", "values": [
      {"measurement": "increase in cell number", "setting": "[2]", "value": "two"},
      {"measurement": "increase in activation occurred only after treatment with phorbol esters known to activate PKC (yes/no)", "setting": "[1]", "value": "increase in activation occurred"},
      {"measurement": "IC50", "setting": "[1]", "value": 50, "unit": "nM"},
      {"measurement": "increase in PA activity associated with the cell layer", "setting": "[1]; confluent cells, 48 hours", "value": 12, "unit": "fold"},
      {"measurement": "increase in PA released into the media", "setting": "[1]; confluent cells, 48 hours", "value": 12, "unit": "fold"}
    ]},
    {"smiles": "CCCCCCCCCCCCCC(=O)O[C@@H]1[C@@H](C)[C@@]2(O)[C@@H](C=C(CO)C[C@]3(O)C(=O)C(C)=C[C@@H]23)[C@@H]2C(C)(C)[C@]12OC(C)=O", "note": "[4-b PMA]", "values": [
      {"measurement": "increase in activation occurred only after treatment with phorbol esters known to activate PKC (yes/no)", "setting": "[1]", "value": "increase in activation occurred"},
      {"measurement": "IC50", "setting": "[1]", "value": 5, "unit": "nM"}
    ]},
    {"smiles": "N#CC1=C(N)Oc2ccc3ccccc3c2C1c1cccc([N+](=O)[O-])c1", "note": "(stereo not drawn) [Example 2, 2-Amino-4-(3-nitrophenyl) -4H-naphtho 2,1-b!pyran-3-carbonitrile]", "values": [
      {"measurement": "IC50", "setting": "[3]", "value": 2500, "unit": "nM"},
      {"measurement": "IC50", "setting": "[4]", "value": 700, "unit": "nM"}
    ]},
    {"smiles": "N#CC1=C(N)Oc2ccc3ccccc3c2C1c1ccc([N+](=O)[O-])cc1", "note": "(stereo not drawn) [Example 3, 2-Amino-4-(4-nitrophenyl)-4H-naphtho 2,1-b!pyran-3-carbonitrile]", "values": [
      {"measurement": "IC50", "setting": "[3]", "value": 8000, "unit": "nM"},
      {"measurement": "IC50", "setting": "[4]", "value": "> 20000", "unit": "nM"}
    ]},
    {"smiles": "N#CC1=C(N)Oc2ccc3ccccc3c2C1c1ccccc1[N+](=O)[O-]", "note": "(stereo not drawn) [Example 4, 2-Amino-4-(2-nitrophenyl)-4H-naphtho 2,1-b!pyran-3-carbonitrile]", "values": [
      {"measurement": "IC50", "setting": "[3]", "value": "> 30000", "unit": "nM"},
      {"measurement": "IC50", "setting": "[4]", "value": "> 20000", "unit": "nM"}
    ]},
    {"smiles": "N#CC1=C(N)Oc2ccc3ccccc3c2C1c1cccc(Br)c1", "note": "(stereo not drawn) [Example 5, 2-Amino-4-(3-bromophenyl)-4H-naphtho 2,1-b!pyran-3-carbonitrile]", "values": [
      {"measurement": "IC50", "setting": "[3]", "value": 1800, "unit": "nM"},
      {"measurement": "IC50", "setting": "[4]", "value": 700, "unit": "nM"}
    ]},
    {"smiles": "N#CC1=C(N)Oc2ccc3ccccc3c2C1c1cccc(Cl)c1", "note": "(stereo not drawn) [Example 6, 2-Amino-4-(3-chlorophenyl)-4H-naphtho 2,1-b!pyran-3-carbonitrile]", "values": [
      {"measurement": "IC50", "setting": "[3]", "value": 2000, "unit": "nM"},
      {"measurement": "IC50", "setting": "[4]", "value": 1000, "unit": "nM"}
    ]},
    {"smiles": "N#CC1=C(N)Oc2ccc3ccccc3c2C1c1cccc(F)c1", "note": "(stereo not drawn) [Example 7, 2-Amino-4-(3-fluorophenyl)-4H-naphtho 2,1-b!pyran-3-carbonitrile]", "values": [
      {"measurement": "IC50", "setting": "[3]", "value": 2000, "unit": "nM"}
    ]},
    {"smiles": "N#CC1=C(N)Oc2ccc3ccccc3c2C1c1ccc(F)cc1", "note": "(stereo not drawn) [Example 8, 2-Amino-4-(4-fluorophenyl)-4H-naphtho 2,1-b!pyran-3-carbonitrile]", "values": [
      {"measurement": "IC50", "setting": "[3]", "value": 1500, "unit": "nM"},
      {"measurement": "IC50", "setting": "[4]", "value": 9000, "unit": "nM"}
    ]},
    {"smiles": "N#CC1=C(N)Oc2ccc3ccccc3c2C1c1ccccc1F", "note": "(stereo not drawn) [Example 9, 2-Amino-4-(2-fluorophenyl) -4H-naphtho 2,1-b!pyran-3-carbonitrile]", "values": [
      {"measurement": "IC50", "setting": "[3]", "value": "> 3000", "unit": "nM"},
      {"measurement": "IC50", "setting": "[4]", "value": "> 20000", "unit": "nM"}
    ]},
    {"smiles": "N#CC1=C(N)Oc2ccc3ccccc3c2C1c1cccc(C(F)(F)F)c1", "note": "(stereo not drawn) [Example 10, 2-Amino-4-3-(trifluoromethyl)phenyl!-4H-naphtho 2,1-b!pyran-3-carbonitrile]", "values": [
      {"measurement": "IC50", "setting": "[3]", "value": 500, "unit": "nM"},
      {"measurement": "IC50", "setting": "[4]", "value": 50, "unit": "nM"}
    ]},
    {"smiles": "N#CC1=C(N)Oc2ccc3cc(C(=O)O)ccc3c2C1c1cccc([N+](=O)[O-])c1", "note": "(stereo not drawn) [Example 11, 2-Amino-3-cyano-4-(3-nitrophenyl)-4H-naphtho 2,1-b!pyran-7-carboxylic acid]", "values": [
      {"measurement": "IC50", "setting": "[3]", "value": "> 30000", "unit": "nM"},
      {"measurement": "IC50", "setting": "[4]", "value": "> 20000", "unit": "nM"}
    ]},
    {"smiles": "N#CC1=C(N)Oc2c(O)cc3ccccc3c2C1c1cccc([N+](=O)[O-])c1", "note": "(stereo not drawn) [Example 12, 2-Amino-10-hydroxy-4-(3-nitrophenyl)-4H-naphtho 2,1-b!pyran-3-carbonitrile]", "values": [
      {"measurement": "IC50", "setting": "[3]", "value": 3000, "unit": "nM"},
      {"measurement": "IC50", "setting": "[4]", "value": 650, "unit": "nM"}
    ]},
    {"smiles": "COc1ccc2ccc3c(c2c1)C(c1cccc([N+](=O)[O-])c1)C(C#N)=C(N)O3", "note": "(stereo not drawn) [Example 13, 2-Amino-6-methoxy-4-(3-nitrophenyl)-4H-naphtho 2,1-b!pyran-3-carbonitrile]", "values": [
      {"measurement": "IC50", "setting": "[3]", "value": "> 3000", "unit": "nM"},
      {"measurement": "IC50", "setting": "[4]", "value": "> 20000", "unit": "nM"}
    ]},
    {"smiles": "COc1cccc(C2C(C#N)=C(N)Oc3ccc4cc(C(=O)O)ccc4c32)c1", "note": "(stereo not drawn) [Example 14, 2-Amino-3-cyano-4-(3-methoxyphenyl)-4H-naphtho 2,1-b!pyran-7-carboxylic acid]", "values": [
      {"measurement": "IC50", "setting": "[4]", "value": "> 100000", "unit": "nM"}
    ]},
    {"smiles": "N#CC1=C(N)Oc2ccc3cc(C(=O)O)ccc3c2C1c1cccc(C(=O)O)c1", "note": "(stereo not drawn) [Example 15, 2-Amino-3-cyano-4-(3-carboxyphenyl)-4H-naphtho 2,1-b!pyran-7-carboxylic acid]", "values": [
      {"measurement": "IC50", "setting": "[4]", "value": 5000, "unit": "nM"}
    ]},
    {"smiles": "N#CC1=C(N)Oc2ccc3cc(C(=O)O)ccc3c2C1c1cccc(OC(F)(F)F)c1", "note": "(stereo not drawn) [Example 16, 2-Amino-3-cyano-4-3-(trifluoromethoxy)phenyl!-4H-naphtho 2,1-b!pyran-7-carboxylic acid]", "values": [
      {"measurement": "IC50", "setting": "[4]", "value": "> 100000", "unit": "nM"}
    ]},
    {"smiles": "CCOC=NC1=C(C#N)C(c2cccc([N+](=O)[O-])c2)c2c(ccc3cc(C(=O)OCC)ccc23)O1", "note": "(stereo not drawn) [Example 17, Ethyl 3-cyano-2-ethoxymethyleneamino-4-(3-nitrophenyl)-4H-naphtho 2,1-b!pyran-7-carboxylate]", "values": [
      {"measurement": "IC50", "setting": "[3]", "value": 6000, "unit": "nM"},
      {"measurement": "IC50", "setting": "[4]", "value": 8000, "unit": "nM"}
    ]}
  ]
}
